Laboratory results taken from patent publication US11518746B2, “Nitrogen ring linked deoxyuridine triphosphatase inhibitors” (CV6 Therapeutics (NI) Limited, priority 2016, dated 2022).

Columns and labels:
[1] = tested on: colorectal (HCT116 and SW620) cell line models; assay: MTS growth inhibition assay; assay type: cell-based; conditions: increasing concentrations of 5-FU between 0 and 100 μmol/L
Protocol: The Cell Titer AQueous MTS assay (Promega) is carried out according to the manufacturers guidelines. […] The combination effect is determined by the combination index (CI) method utilizing Calcusyn software (Biosoft, Ferguson, Mo.). Fraction affected (FA) is calculated from the percent growth inhibition: FA=[…]. CI values <1, synergism; 1-1.2, additive and >1.2, antagonism.
Test compounds are evaluated for their antitumor activity in colorectal cancer cells using the MTS growth inhibition assay. HCT116 and SW620 cells are exposed to increasing concentrations of each agent for 72 hours and growth inhibition is directly compared to vehicle-treated controls. The NSCLC cell lines A549 and H1299 are exposed to increasing concentrations of each agent for 72 hours and growth inhibition is directly compared to vehicle-treated controls.
MTS growth inhibition assays are performed to evaluate the effectiveness of the test compounds alone and in combination with the fluoropyrimidine thymidylate synthase (TS) inhibitor 5-fluorouracil (5-FU) at inhibiting the growth of colorectal (HCT116 and SW620) cell line models. […] Simultaneous treatment with increasing concentrations of 5-FU and a test compound at fixed concentrations of 25 μmol/L is determined.

[2] = biological target: T1, Recombinant human deoxyuridine nucleotidohydrolase (dUTPase) (Homo sapiens, UniProt P33316); assay: dUTPase inhibition, fluorescence-based DNA polymerase assay; assay type: biochemical; conditions: for % relative inhibition vs. positive control: mean over three concentrations, typically 100, 50 and 25 μmol/L, compared to in-run positive control
T1 construct: made in house
T1 sequence (P33316 1-164 isoform P33316-2): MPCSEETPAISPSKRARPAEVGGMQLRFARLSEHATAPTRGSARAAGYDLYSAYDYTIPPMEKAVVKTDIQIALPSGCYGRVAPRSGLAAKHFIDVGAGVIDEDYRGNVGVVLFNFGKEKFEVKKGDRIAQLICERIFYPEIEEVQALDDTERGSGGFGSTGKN
Text: Recombinant human deoxyuridine nucleotidohydrolase (dUTPase) is expressed and purified as described in Ladner R D, Carr S A, Huddleston M J, McNulty D E, Caradonna S J. J Biol Chem. 1996 Mar. 29; 271(13):7752-7. All drugs stocks are aliquoted and diluted as appropriate prior to use. The oligonucleotide primer, templates and fluorophore- and quencher-labeled detection probes are synthesized by Integrated DNA Technologies (Coralville, Iowa), subjected to polyacrylamide gel electrophoresis purification and reconstituted in Omnipur sterile nuclease-free water (EMD Chemicals USA, Gibbstown N.J.) at a stock concentration of 100 μmol/L. The two non-emissive (dark) quenching molecules incorporated into the detection probes include the Iowa black fluorescein quencher (IBFQ; absorption max 531 nm) and ZEN (non-abbreviation; absorption max 532 nm). The fluorescent label utilized is 6-FAM (5′-carboxyfluorescein; excitation max.=494 nm, emission max.=520 nm). Probes are further diluted to a working stock of 10 μmol/L and aliquoted to avoid repeated freeze/thaw cycles. AmpliTaq Gold DNA Polymerase, GeneAmp 10×PCR Buffer 2, MgCl2 and MicroAmp Optical 96-well Reaction Plates are purchased from Applied Biosystems (Carlsbad, Calif.). dNTPs are purchased individually at stock concentrations of 100 mmol/L from New England Biolabs at HPLC-certified >99% purity (Ipswich, Mass.).
Reaction mixtures contained primer, probe and template at an equimolar final concentration of 0.4 μmol/L. Magnesium chloride (MgCl2) is included at a final concentration of 2 mmol/L. Non-limiting dNTPs are included in the reaction mix in excess at a final concentration of 100 μmol/L (dUTP/dTTP is excluded). AmpliTaq Gold DNA polymerase is added at 0.875 U/reaction, 2.5 μl of 10×PCR buffer 2 added and nuclease-free ddH2O added to a final reaction volume of 25 μl. […] Thermal profiling and fluorescence detection is performed using a customized thermal program on board a Roche Lightcycler LC480 Instrument II. […] Raw fluorescence spectra for 6-FAM is measured at specified time intervals to follow assay progression on board a Roche LightCycler 480 Software Version 1.5 and exported and analyzed in Microsoft Excel (Microsoft, Redmond Wash.) and Prism (GraphPad Software, La Jolla Calif.). Fluorescence values for blank reactions (limiting dNTP omitted) are subtracted to give normalized fluorescence units (NFU) to account for background fluorescence.
Test compounds are screened in a fluorescence-based assay. […] This displacement effectively disrupts the Förster resonance energy transfer (FRET) and the resulting fluorescence detected upon excitation is directly proportional to the amount of the dUTP available in the assay for incorporation. […]

[3] = tested on: colorectal (HCT116), breast (MCF-7) and non-small cell lung (H1299, A549, H358 and H460) cell line models; assay: Colony forming assay; assay type: cell-based; conditions: increasing concentrations of FUdR between 0.5 and 2.5 μmol/L
Protocol: Colony forming assay showing the ability of colon (SW620, HCT116), non-small cell lung (A549, H460, H1299 and H358) and breast (MCF7) cancer cells to survive and proliferate following transient 24 hour exposure to test compounds, FUdR and combinations are determined. Specifically, cells are seeded at densities between 50 and 100 cells/well in 24-well plates. Twenty-four hours later, cells are treated with increasing concentrations of a rtest compound, a fixed dose of FUdR and combinations of these. After 24 hours, drug is removed, cells are rinsed and allowed to outgrow for 10-14 days. At the conclusion of the outgrowth, cells are fixed in 60% ice cold methanol and stained with 0.1% crystal violet, scanned and counted. Data is presented as percentage of untreated controls (mean±SD). Fraction affected and combination indexes are calculated according to the method of Chou and Talalay where <1 is indicative of a synergistic drug interaction.
Colony forming assays are performed to evaluate the effectiveness of test compounds alone and in combination with the fluoropyrimidine thymidylate synthase (TS) inhibitor fluorodeoxyuridine (FUdR) at reducing cancer cell viability in colorectal (HCT116), breast (MCF-7) and non-small cell lung (H1299, A549, H358 and H460) cell line models. […]

% relative inhibition vs. positive control [2]	SMILES	also measured
	O=c1[nH]cc(F)c(=O)[nH]1 [Example 5-FU, 5-fluorouracil]	growth inhibition [1]: dose-dependent increases in growth inhibition
75%	O=C1CN(CCCC(=O)N2CCC[C@H]2C(O)(c2ccccc2)c2ccccc2)C(=O)N1 [Example 79, (5)-1-(4-(2-(hydroxydiphenylmethyl)pyrrolidin-1-yl)-4-oxobutyl)imidazolidine-2,4-dione]	IC50 [2]: 1000 nM
22%	COc1ccc(NCCCS(=O)(=O)N2CCCC2C(C)c2ccc(F)c(OCC3CC3)c2)c(=O)[nH]1 (stereo not drawn) [Example 80, 3-((3-((2-(1-(3-(cyclopropylmethoxy)-4-fluorophenyl)ethyl)pyrrolidin-1-yl)sulfonyl)propyl)amino)-6-methoxypyridin-2(1H)-one]	
13%	CC(c1ccc(F)c(OCC2CC2)c1)C1CCCN1S(=O)(=O)CCCNC1CCC(=O)NC1=O (stereo not drawn) [Example 82, 3-((3-((2-(1-(3-(cyclopropylmethoxy)-4-fluorophenyl)ethyl)pyrrolidin-1-yl)sulfonyl)propyl)amino)piperidine-2,6-dione]	
	O=c1[nH]c(=O)n([C@H]2C[C@H](O)[C@@H](CO)O2)cc1F [FUdR, fluorodeoxyuridine]	colonies formed [3]: dose-dependent decreases in colonies formed
